# Measurements from patent US20110021565A1, “PIPERIDINE DERIVATIVES AS NK3 ANTAGONISTS” (priority 2007, published 2011).
# pKi: −log10 of the molar value.
# Target: T1, recombinant human NK3 receptor (Homo sapiens, UniProt P29371)
# T1 construct: expressed in transfected cells; host or cells: HEK293 cells, transient expression; membrane preparation
# T1 sequence (P29371 1-465): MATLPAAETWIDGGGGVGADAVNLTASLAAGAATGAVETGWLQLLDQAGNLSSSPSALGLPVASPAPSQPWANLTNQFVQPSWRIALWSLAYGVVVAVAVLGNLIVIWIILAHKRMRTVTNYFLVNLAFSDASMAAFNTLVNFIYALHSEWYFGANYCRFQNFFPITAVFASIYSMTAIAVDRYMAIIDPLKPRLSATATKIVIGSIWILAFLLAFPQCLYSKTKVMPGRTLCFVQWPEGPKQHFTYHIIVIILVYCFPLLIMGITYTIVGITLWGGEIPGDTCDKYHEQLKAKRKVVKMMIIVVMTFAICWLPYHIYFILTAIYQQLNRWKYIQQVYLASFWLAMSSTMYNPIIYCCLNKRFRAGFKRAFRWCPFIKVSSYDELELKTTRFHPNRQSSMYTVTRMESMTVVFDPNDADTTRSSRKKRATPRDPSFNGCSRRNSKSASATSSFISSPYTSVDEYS
# Experiment: [3H]SR142801 competition binding assay
# Details: [3H]SR142801, membranes of HEK293 cells transiently expressing recombinant human NK3 receptor; read-out: hNK3 Ki
# Description: [^3H]SR142801 Competition Binding Assay
# hNK3 receptor binding experiment were performed using [^3H]SR142801 (Catalog No. TRK1035, specific activity: 74.0 Ci/mmol, Amersham, GE Healthcare UK limited, Buckinghamshire, UK) and membrane isolated from HEK293 cells transiently expressing recombinant human NK3 receptor. After thawing, the membrane homogenates were centrifuged at 48,000×g for 10 min at 4° C., the pellets were resuspended in the 50 mM Tris-HCl, 4 mM MnCl2, 1 μM phosphoramidon, 0.1% BSA binding buffer at pH 7.4 to a final assay concentration of 5 μg protein/well. For inhibition experiments, membranes were incubated with [^3H]SR142801 at a concentration equal to KD value of radioligand and 10 concentrations of the inhibitory compound (0.0003-10 μM) (in a total reaction volume of 500 μl) for 75 min at room temperature (RT). At the end of the incubation, membranes were filtered onto unitfilter (96-well white microplate with bonded GF/C filter preincubated 1 h in 0.3% PEI+0.3% BSA, Packard BioScience, Meriden, Conn.) with a Filtermate 196 harvester (Packard BioScience) and washed 4 times with ice-cold 50 mM Tris-HCl, pH 7.4 buffer. Nonspecific binding was measured in the presence of 10 μM SB222200 for both radioligands. The radioactivity on the filter was counted (5 min) on a Packard Top-count microplate scintillation counter with quenching correction after addition of 45 μl of microscint 40 (Canberra Packard S. A., Zurich, Switzerland) and shaking for 1 h. Inhibition curves were fitted according to the Hill equation: y=100/(1+(x/IC50)^nH), where nH=slope factor using Excel-fit 4 software ([…]). IC50 values were derived from the inhibition curve and the affinity constant (IQ values were calculated using the Cheng-Prussoff equation Ki=IC50/(1+[L]/KD) where [L] is the concentration of radioligand and KD is its dissociation constant at the receptor, derived from the saturation isotherm. All experiments were performed in duplicate and the mean±standard error (SEM) of the individual Ki values was calculated.
row,pKi,SMILES
1,6.96,"CC(=O)N(C)C1CCN(CCC(C)(C(=O)N[C@H](CO)c2ccc(Cl)c(Cl)c2)c2ccc(Cl)c(Cl)c2)CC1 (single isomer, unassigned; diastereoisomer 2) [Example 110, 4-[4-(Acetyl-methyl-amino)-piperidin-1-yl]-2-(3,4-dichloro-phenyl)-N-[1-(3,4-dichloro-phenyl)-2-hydroxy-ethyl]-2-methyl-butyramide; diastereoisomer 2]"
2,6.85,"CC(=O)N(C)C1CCN(CCC(C)(C(=O)N[C@H](CO)c2ccc(F)cc2)c2ccc(Cl)c(Cl)c2)CC1 (single isomer, unassigned; diastereoisomer 2) [Example 139, 4-[4-(Acetyl-methyl-amino)-piperidin-1-yl]-2-(3,4-dichloro-phenyl)-N-[1-(4-fluoro-phenyl)-2-hydroxy-ethyl]-2-methyl-butyramide (diastereoisomer 2)]"
3,6.78,"CC(=O)N(C1CC1)C1CCN(CCC(C)(C(=O)N[C@H](CO)c2ccc(F)cc2)c2ccc(Cl)c(Cl)c2)CC1 (single isomer, unassigned; diastereoisomer 2) [Example 141, 4-[4-(Acetyl-cyclopropyl-amino)-piperidin-1-yl]-2-(3,4-dichloro-phenyl)-N-[1-(4-fluoro-phenyl)-2-hydroxy-ethyl]-2-methyl-butyramide (diastereoisomer 2)]"
4,7.06,"CC(=O)N(C1CC1)C1CCN(CCC(C)(C(=O)N[C@@H](CO)c2ccc(Cl)cc2)c2ccc(Cl)c(Cl)c2)CC1 (single isomer, unassigned; diastereoisomer 2) [Example 143, 4-[4-(Acetyl-cyclopropyl-amino)-piperidin-1-yl]-N-[1-(4-chloro-phenyl)-2-hydroxy-ethyl]-2-(3,4-dichloro-phenyl)-2-methyl-butyramide (diastereoisomer 2)]"
5,7.30,"CC(=O)N(C1CC1)C1CCN(CCC(C)(C(=O)N[C@H](CO)c2ccc(Cl)c(Cl)c2)c2ccc(Cl)c(Cl)c2)CC1 (single isomer, unassigned; diastereoisomer 2) [Example 145, 4-[4-(Acetyl-cyclopropyl-amino)-piperidin-1-yl]-2-(3,4-dichloro-phenyl)-N-[1-(3,4-dichloro-phenyl)-2-hydroxy-ethyl]-2-methyl-butyramide (diastereoisomer 2)]"
6,7.86,"CC(=O)NC1CCN(CCC(C)(C(=O)N[C@H](CO)c2ccc(F)cc2)c2ccc(Cl)c(Cl)c2)CC1 (single isomer, unassigned; diastereoisomer 2) [Example 155, 4-(4-Acetylamino-piperidin-1-yl)-2-(3,4-dichloro-phenyl)-N-[1-(4-fluoro-phenyl)-2-hydroxy-ethyl]-2-methyl-butyramide (diastereoisomer 2)]"
7,6.11,"CC(=O)NC1CCN(CCC(C)(C(=O)N[C@@H](CO)c2ccc(Cl)cc2)c2ccc(Cl)c(Cl)c2)CC1 (single isomer, unassigned; diastereoisomer 2) [Example 157, 4-(4-Acetylamino-piperidin-1-yl)-N-[1-(4-chloro-phenyl)-2-hydroxy-ethyl]-2-(3,4-dichloro-phenyl)-2-methyl-butyramide (diastereoisomer 2)]"
8,6.59,"CC(=O)NC1CCN(CCC(C)(C(=O)N[C@H](CO)c2ccc(Cl)c(Cl)c2)c2ccc(Cl)c(Cl)c2)CC1 (single isomer, unassigned; diastereoisomer 2) [Example 159]"
9,9.30,"CCCN(C(C)=O)C1CCN(CCC(C)(C(=O)N[C@@H](CO)c2ccc(F)cc2)c2ccc(Cl)c(Cl)c2)CC1 (single isomer, unassigned; epimer 1) [Example 162]"
10,8.66,"CCN(C(C)=O)C1CCN(CCC(C)(C(=O)N[C@@H](CO)c2ccc(F)cc2)c2ccc(Cl)c(Cl)c2)CC1 (single isomer, unassigned; epimer 1) [Example 166]"
11,8.25,"CCCN(C(C)=O)C1CCN(CCC(C)(C(=O)N[C@@H](CO)c2ccc(F)cc2)c2ccc(Cl)c(Cl)c2)CC1 (single isomer, unassigned; epimer 2) [Example 163]"
12,7.46,"CCN(C(C)=O)C1CCN(CCC(C)(C(=O)N[C@@H](CO)c2ccc(F)cc2)c2ccc(Cl)c(Cl)c2)CC1 (single isomer, unassigned; epimer 2) [Example 167]"
13,6.42,"COCCN(C(C)=O)C1CCN(CCC(C)(C(=O)N[C@@H](CO)c2ccc(Cl)cc2)c2ccc(Cl)c(Cl)c2)CC1 (stereo in doubt) [Example 147, 4-{4-[Acetyl-(2-methoxy-ethyl)-amino]-piperidin-1-yl}-N-[1-(4-chloro-phenyl)-2-hydroxy-ethyl]-2-(3,4-dichloro-phenyl)-2-methyl-butyramide]"
14,6.73,"COc1ccc(CN(C)C(=O)C(C)(CCN2CCC(NS(C)(=O)=O)CC2)c2ccc(Cl)c(Cl)c2)cc1F (stereo not shown) [Example 1, 2-(3,4-Dichloro-phenyl)-N-(3-fluoro-4-methoxy-benzyl)-4-(4-methanesulfonylamino-piperidin-1-yl)-2,N-dimethyl-butyramide]"
15,6.15,"COc1ccc(C(NC(=O)C(C)(CCN2CCC(NS(C)(=O)=O)CC2)c2ccc(Cl)c(Cl)c2)C2CC2)cc1 (stereo not shown) [Example 2, N-[Cyclopropyl-(4-methoxy-phenyl)-methyl]-2-(3,4-dichloro-phenyl)-4-(4-methanesulfonyl-amino-piperidin-1-yl)-2-methyl-butyramide]"
16,7.63,"CN(Cc1ccc(F)c(C(F)(F)F)c1)C(=O)C(C)(CCN1CCC(NS(C)(=O)=O)CC1)c1ccc(Cl)c(Cl)c1 (stereo not shown) [Example 3, 2-(3,4-Dichloro-phenyl)-N-(4-fluoro-3-trifluoromethyl-benzyl)-4-(4-methanesulfonyl-amino-piperidin-1-yl)-2,N-dimethyl-butyramide]"
17,6.86,"CC(CCN1CCC(NS(C)(=O)=O)CC1)(C(=O)NCc1cc(C(F)(F)F)cc(C(F)(F)F)c1)c1ccc(Cl)c(Cl)c1 (stereo not shown) [Example 4, N-(3,5-Bis-trifluoromethyl-benzyl)-2-(3,4-dichloro-phenyl)-4-(4-methanesulfonyl-amino-piperidin-1-yl)-2-methyl-butyramide]"
18,6.57,"COc1cc(CN(C)C(=O)C(C)(CCN2CCC(NS(C)(=O)=O)CC2)c2ccc(Cl)c(Cl)c2)ccc1OC(F)F (stereo not shown) [Example 5, 2-(3,4-Dichloro-phenyl)-N-(4-difluoromethoxy-3-methoxy-benzyl)-4-(4-methanesulfonyl-amino-piperidin-1-yl)-2,N-dimethyl-butyramide]"
19,7.11,"Cc1ccc(CN(C)C(=O)C(C)(CCN2CCC(NS(C)(=O)=O)CC2)c2ccc(Cl)c(Cl)c2)cc1 (stereo not shown) [Example 6, 2-(3,4-Dichloro-phenyl)-4-(4-methanesulfonyl-amino-piperidin-1-yl)-2,N-dimethyl-N-(4-methyl-benzyl)-butyramide]"
20,6.21,"CN(C)c1ccc(CNC(=O)C(C)(CCN2CCC(NS(C)(=O)=O)CC2)c2ccc(Cl)c(Cl)c2)cc1 (stereo not shown) [Example 7, 2-(3,4-Dichloro-phenyl)-N-(4-dimethylamino-benzyl)-4-(4-methanesulfonyl-amino-piperidin-1-yl)-2-methyl-butyramide]"
21,7.65,"CN(Cc1ccc(Cl)c(C(F)(F)F)c1)C(=O)C(C)(CCN1CCC(NS(C)(=O)=O)CC1)c1ccc(Cl)c(Cl)c1 (stereo not shown) [Example 8, N-(4-Chloro-3-trifluoromethyl-benzyl)-2-(3,4-dichloro-phenyl)-4-(4-methanesulfonyl-amino-piperidin-1-yl)-2,N-dimethyl-butyramide]"
22,7.52,"CN(Cc1ccc(C(F)(F)F)c(F)c1)C(=O)C(C)(CCN1CCC(NS(C)(=O)=O)CC1)c1ccc(Cl)c(Cl)c1 (stereo not shown) [Example 9, 2-(3,4-Dichloro-phenyl)-N-(3-fluoro-4-trifluoromethyl-benzyl)-4-(4-methanesulfonyl-amino-piperidin-1-yl)-2,N-dimethyl-butyramide]"

# Same assay, conditions: representative compounds; [3H]SR142801, HEK293 membranes, human NK3 receptor; read-out: Ki NK3 h
row,pKi,SMILES
1,9.30,"CCCN(C(C)=O)C1CCN(CCC(C)(C(=O)N[C@@H](CO)c2ccc(F)cc2)c2ccc(Cl)c(Cl)c2)CC1 (single isomer, unassigned; epimer 1) [Example 162]"
2,8.66,"CCN(C(C)=O)C1CCN(CCC(C)(C(=O)N[C@@H](CO)c2ccc(F)cc2)c2ccc(Cl)c(Cl)c2)CC1 (single isomer, unassigned; epimer 1) [Example 166]"
3,8.25,"CCCN(C(C)=O)C1CCN(CCC(C)(C(=O)N[C@@H](CO)c2ccc(F)cc2)c2ccc(Cl)c(Cl)c2)CC1 (single isomer, unassigned; epimer 2) [Example 163]"
